Test results: patent US11001587B2, “Substituted indazoles as phosphatidylinositol kinase inhibitors” (CUROVIR AB, priority 2017, dated 2021)
pIC50: −log10 of the molar value.

How the values were obtained:
Type in all cases: cell-based
Enterovirus 71 = assay: In vitro CPE assay in mammalian cell culture, EV71; settings: Enterovirus A, viral cytopathic effect in mammalian cell culture, read-out: EV71 inhibition capacity (IC50)
coxsackie B3 virus = assay: In vitro CPE assay in mammalian cell culture, B3; settings: Enterovirus B, viral cytopathic effect in mammalian cell culture, read-out: B3 inhibition capacity (IC50)
polio virus Sabin 1 = assay: organism not typed; settings: read-out: Polio 1 inhibition capacity (IC50)
Enterovirus 6 = assay: In vitro CPE assay in mammalian cell culture, EV6; settings: viral cytopathic effect in mammalian cell culture, read-out: EV6 inhibition capacity (IC50)
Enterovirus 68 = assay: In vitro CPE assay in mammalian cell culture, EV68; settings: Enterovirus D, viral cytopathic effect in mammalian cell culture, read-out: EV68 inhibition capacity (IC50)
Enterovirus 30 = assay: In vitro CPE assay in mammalian cell culture, EV30; settings: viral cytopathic effect in mammalian cell culture, read-out: EV30 inhibition capacity (IC50)
coxsackie B2 virus = assay: In vitro CPE assay in mammalian cell culture, B2; settings: viral cytopathic effect in mammalian cell culture, read-out: B2 inhibition capacity (IC50)
coxsackie B4 virus = assay: In vitro CPE assay in mammalian cell culture, B4; settings: Enterovirus B, viral cytopathic effect in mammalian cell culture, read-out: B4 inhibition capacity (IC50)
coxsackie B1 virus = assay: In vitro CPE assay in mammalian cell culture, B1; settings: viral cytopathic effect in mammalian cell culture, read-out: B1 inhibition capacity (IC50)
coxsackie B5 virus = assay: In vitro CPE assay in mammalian cell culture, B5; settings: viral cytopathic effect in mammalian cell culture, read-out: B5 inhibition capacity (IC50)

Compound	pIC50 (Enterovirus 71)	pIC50 (coxsackie B3 virus)	pIC50 (polio virus Sabin 1)	pIC50 (Enterovirus 6)	pIC50 (Enterovirus 68)	pIC50 (Enterovirus 30)	pIC50 (coxsackie B2 virus)	pIC50 (coxsackie B4 virus)	pIC50 (coxsackie B1 virus)	pIC50 (coxsackie B5 virus)
Cc1nc(NCc2ccc(S(C)(=O)=O)cc2)n2nc(C)c(-c3ccc4c(c3)c(C)nn4C)c2n1 [Example 25, 8-(1,3-dimethyl-1H-indazol-5-yl)-2,7-dimethyl-N-(4-(methyl-sulfonyl)benzyl)pyrazolo[1,5-a][1,3,5]triazin-4-amine]	> 8.00	> 8.00	> 9.00	> 8.00	> 8.00	> 8.00	> 8.00	> 9.00	> 8.00	> 8.00
Cc1nc(NCc2cccs2)n2nc(C)c(-c3ccc4c(c3)c(C)nn4C)c2n1 [Example 27, 8-(1,3-dimethyl-1H-indazol-5-yl)-2,7-dimethyl-N-(thiophen-2-ylmethyl)pyrazolo[1,5-a][1,3,5]triazin-4-amine]	> 7.00	> 8.00	> 7.00	> 7.00	> 7.00	> 7.00	> 9.00	> 9.00	> 9.00	
Cc1cc(NCc2ccccc2)n2nc(C)c(-c3ccc4c(c3)c(C)nn4C)c2n1 [Example 18, N-(benzyl)-3-(1,3-dimethyl-1H-indazol-5-yl)-2,5-dimethylpyrazolo[1,5-a]pyrimidin-7-amine]	> 8.00	> 7.00	> 7.00	> 6.00			> 7.00	> 6.00		> 6.00
Cc1cc(NCc2cccs2)c2nc(C)c(-c3ccc4c(c3)c(C)nn4C)n2n1 [Example 5, 3-(1,3-dimethyl-1H-indazol-5-yl)-2,6-dimethyl-N-(thiophen-2-ylmethyl)imidazo[1,2-b]pyridazin-8-amine]	> 7.00	> 7.00	> 7.00	> 7.00	> 6.00	> 7.00	> 7.00	> 7.00	> 9.00	
COc1ccc(CNc2cc(C)nn3c(-c4ccc5c(c4)c(C)nn5C)c(C)nc23)cn1 [Example 4, 3-(1,3-dimethyl-1H-indazol-5-yl)-N-((6-methoxypyridin-3-yl)methyl)-2,6-dimethylimidazo[1,2-b]pyridazin-8-amine]	> 7.00	> 7.00	> 6.00	> 6.00	> 6.00	> 7.00	> 7.00	> 7.00	> 7.00	
Cc1cc(NCc2ccc(NS(C)(=O)=O)cc2)n2nc(C)c(-c3ccc4c(c3)c(C)nn4C)c2n1 [Example 16, N-(4-(((3-(1,3-dimethyl-1H-indazol-5-yl)-2,5-dimethylpyrazolo[1,5-a]pyrimidin-7-yl)amino)meth-yl)phenyl)methane-sulfonamide]	> 6.00	> 7.00	> 6.00	> 6.00	> 6.00	> 6.00	> 6.00	> 7.00	> 6.00	> 6.00
COc1ccc(CNc2cc(C)nc3c(-c4ccc5c(c4)c(C)nn5C)c(C)nn23)cc1 [Example 10, 3-(1,3-dimethyl-1H-indazol-5-yl)-N-(4-methoxybenzyl)-2,5-dimethylpyrazolo[1,5-a]pyrimidin-7-amine]	> 6.00	> 7.00	> 6.00	> 6.00	> 6.00	> 7.00	> 6.00	> 7.00	> 6.00	> 7.00
Cc1cc(NCc2ccc(C(F)(F)F)nc2)n2nc(C)c(-c3ccc4c(c3)c(C)nn4C)c2n1 [Example 17, 3-(1,3-dimethyl-1H-indazol-5-yl)-2,5-dimethyl-N-((6-trifluoromethylpyridin-3-yl)methyl)pyrazolo[1,5-a]pyrimidin-7-amine]	> 7.00	> 6.00	> 6.00	> 6.00		> 6.00	> 6.00	> 6.00		> 6.00
Cc1nc(NCc2ccc(NS(C)(=O)=O)cc2)n2nc(C)c(-c3ccc4c(c3)c(C)nn4C)c2n1 [Example 26, N-(4-(((8-(1,3-dimethyl-1H-indazol-5-yl)-2,7-dimethylpyrazolo[1,5-a][1,3,5]triazin-4-yl)amino)meth-yl)phenyl)methane-sulfonamide]	> 7.00	> 7.00	> 6.00	> 6.00	> 7.00	> 7.00	> 7.00	> 7.00	> 8.00	
Cc1ccc(CNc2cc(C)nc3c(-c4ccc5c(c4)c(C)nn5C)c(C)nn23)cn1 [Example 9, 3-(1,3-dimethyl-1H-indazol-5-yl)-2,5-dimethyl-N-((6-methylpyridin-3-yl)methyl)pyrazolo[1,5-a]pyrimidin-7-amine]	> 7.00	> 8.00	> 7.00	> 6.00	> 7.00	> 7.00	> 8.00	> 7.00	> 8.00	> 7.00
COc1ccc(CNc2nc(C)nc3c(-c4ccc5c(c4)c(C)nn5C)c(C)nn23)cc1 [Example 21, 8-(1,3-dimethyl-1H-indazol-5-yl)-N-(4-methoxybenzyl)-2,7-dimethylpyrazolo[1,5-a][1,3,5]triazin-4-amine]	> 7.00	> 7.00	> 8.00		> 6.00	> 6.00	> 6.00	> 6.00	> 6.00	> 6.00
COc1ccc(CNc2cc(C)nc3c(-c4ccc5c(c4)c(C)nn5C)c(C)nn23)cn1 [Example 14, 3-(1,3-dimethyl-1H-indazol-5-yl)-N-((6-methoxypyridin-3-yl)methyl)-2,5-dimethylpyrazolo[1,5-a]pyrimidin-7-amine]	> 6.00	> 8.00	> 7.00	> 6.00	> 6.00	> 7.00	> 6.00	> 8.00	> 6.00	> 6.00
Cc1cc(NCc2ccc(F)cc2)n2nc(C)c(-c3ccc4c(c3)c(C)nn4C)c2n1 [Example 19, N-(4-fluorobenzyl)-3-(1,3-dimethyl-1H-indazol-5-yl)-2,5-dimethylpyrazolo[1,5-a]pyrimidin-7-amine]	> 7.00	> 7.00	> 6.00	> 6.00			> 6.00	> 6.00		> 6.00
Cc1cc(NCc2ccc(Cl)cc2)c2nc(C)c(-c3ccc4c(c3)c(C)nn4C)n2n1 [Example 3, N-(4-chlorobenzyl)-3-(1,3-dimethyl-1H-indazol-5-yl)-2,6-dimethylimidazo[1,2-b]pyridazin-8-amine]	> 6.00	> 6.00	> 6.00	> 6.00	> 6.00	> 6.00	> 6.00	> 6.00	> 7.00	
COc1ccc(CNc2cc(C)nn3c(-c4ccc5c(c4)c(C)nn5C)c(C)nc23)cc1 [Example 6, 3-(1,3-dimethyl-1H-indazol-5-yl)-N-(4-methoxybenzyl)-2,6-dimethylimidazo[1,2-b]pyridazin-8-amine]		> 6.00	> 6.00		> 6.00	> 6.00	> 6.00	> 6.00	> 6.00	> 6.00
Cc1ccc(CNc2nc(C)nc3c(-c4ccc5c(c4)c(C)nn5C)c(C)nn23)cn1 [Example 22, 8-(1,3-dimethyl-1H-indazol-5-yl)-2,7-dimethyl-N-((6-methylpyridin-3-yl)methyl)pyrazolo[1,5-a][1,3,5]triazin-4-amine]	> 8.00	> 9.00	> 9.00	> 6.00	> 7.00	> 7.00	> 8.00	> 6.00	> 8.00	> 7.00
Cc1nc(NCc2ccc(S(N)(=O)=O)cc2)n2nc(C)c(-c3ccc4c(c3)c(C)nn4C)c2n1 [Example 23, 4-(((8-(1,3-dimethyl-1H-indazol-5-yl)-2,7-dimethylpyrazolo[1,5-a][1,3,5]triazin-4-yl)amino)methyl)benzene-sulfonamide]	> 8.00	> 7.00	> 7.00	> 7.00	> 7.00	> 7.00	> 7.00	> 8.00	> 7.00	> 7.00
COc1ccc(CNc2nc(C)nc3c(-c4ccc5c(c4)c(C)nn5C)c(C)nn23)cn1 [Example 28, 8-(1,3-dimethyl-1H-indazol-5-yl)-N-((6-methoxypyridin-3-yl)methyl)-2,7-dimethylpyrazolo[1,5-a][1,3,5]triazin-4-amine]	> 7.00	> 7.00	> 6.00	> 6.00	> 6.00	> 7.00	> 7.00	> 7.00	> 8.00	
